From patent US8178506B2, “Oligomeric compounds and compositions for use in modulation of small non-coding RNAs” (Regulus Therapeutics Inc., priority 2003, dated 2012)
“Also recorded” adds a separate entry of the source. In the oligonucleotide strings, read from the 5' end, every base follows the letter of its sugar. An asterisk marks phosphorothioate; unmarked linkages are phosphodiester. Other units and linkages are bracketed, terminal groups are in braces. A string of capitals states the bases alone. e = 2'-O-(2-methoxyethyl) (MOE); [5mC] = 5-methylcytosine; d = 2'-deoxy (DNA)

System: mir-21 pri-miRNA
Experiment: mir-21 pri-miRNA expression in HeLa cells (real-time RT-PCR)
Type: cell-based, human
Details: 100 nM; for levels of the mir-21 pri-miRNA molecule: HeLa; for mir-21 pri-miRNA expression % UTC: HeLa cells, real-time RT-PCR
Protocol: In one embodiment, the expression of mir-21 (noted to be expressed at high levels in HeLa cells) was assessed in cells treated with oligomeric compounds. Using the transfection methods previously described, HeLa cells were treated with 100 nM of the uniform 2′-MOE oligomeric compound ISIS Number 327917 (SEQ ID NO: 335) targeting the mir-21 mature miRNA. Total RNA was isolated by lysing cells in 1 mL TRIZOL™ (Invitrogen) using the manufacturer's recommended protocols. […] Real-time RT-PCR analysis was also performed on HeLa cells treated with ISIS 327917 using a primer/probe set specific for the mir-21 pri-miRNA molecule [forward primer=ISIS 339332 ([…]; herein incorporated as SEQ ID NO.: 911), reverse primer-ISIS 339333 (TCGACTGGTGTTGCCATGA; herein incorporated as SEQ ID NO.: 912), and probe=ISIS 339334 ([…]; herein incorporated as SEQ ID NO.: 913)]. Total RNA was quantified using RiboGreen™ RNA quantification reagent (Molecular Probes, Inc. Eugene, Oreg.), expression levels observed for the target were normalized to 5.8S rRNA, and values were expressed relative to an untreated control (UTC).
Using the real-time RT-PCR methods, the expression levels of the mir-21 pri-miRNA were compared in HeLa cells treated with this nested series of uniform 2′-MOE oligomeric compounds, targeting and spanning the entire length of the mir-21 pri-miRNA. ISIS Number 358768 (SEQ ID NO: 918) targets a region flanking the predicted 5′ Drosha cleavage site in the mir-21 pri-miRNA. ISIS Number 358777 (SEQ ID NO: 927) targets a region spanning the 3′ Drosha cleavage site in the mir-21 pri-miRNA. ISIS 358779 (SEQ ID NO: 929) targets a region flanking the predicted 3′ Drosha cleavage site in the mir-21 pri-miRNA. Additionally, oligomeric compounds ISIS 327917 (SEQ ID NO: 335), a uniform 2′-MOE compound targeting the mature mir-21 miRNA, and ISIS 345382 ([…]; SEQ ID NO: 335), a 5-10-7 phosphorothioate 2′-MOE gapmer targeting mir-21, were tested for comparison. Oligomeric compound ISIS 327863 ([…]; herein incorporated as SEQ ID NO: 936), a phosphorothioate 5-10-52′-MOE gapmer, was used as scrambled control. […] Total RNA was isolated by lysing cells in 1 mL TRIZOL™ (Invitrogen) using the manufacturer's recommended protocols. real-time RT-PCR analysis was performed using the primer/probe set specific for the mir-21 pri-miRNA molecule [forward primer=ISIS 339332 (SEQ ID NO.: 911), reverse primer-ISIS 339333 (SEQ ID NO.: 912), and probe=ISIS 339334 (SEQ ID NO.: 913)]. Total RNA was quantified using RiboGreen™ RNA quantification reagent (Molecular Probes, Inc. Eugene, Oreg.), expression levels observed for each target were normalized to 5.8S rRNA, and values were expressed relative to the untreated control (UTC). Effects on expression of the mir-21 pri-miRNA molecule resulting from treatment of HeLa cells with these uniform 2′-MOE oligomeric compounds is expressed as a percentage of RNA levels in untreated control cells.

Row | Substance | levels of the mir-21 pri-miRNA molecule | mir-21 pri-miRNA expression % UTC [% UTC]
1 | ISIS 358784: uniform 2′-MOE PS; targets mir-21 pri-miRNA (antisense e[5mC]*eG*eA*e[5mC]*eA*eA*eG*eG*eT*eG*eG*eT*eA*e[5mC]*eA*eG*e[5mC]*e[5mC]*eA*eT) | stimulate an increase in levels of the mir-21 pri-miRNA molecule | –
2 | ISIS 358772: uniform 2′-MOE PS; targets mir-21 pri-miRNA (antisense eG*eA*eG*eA*eT*eT*e[5mC]*eA*eA*e[5mC]*eA*eG*eT*e[5mC]*eA*eA*e[5mC]*eA*eT*e[5mC]) | stimulate an increase in levels of the mir-21 pri-miRNA molecule | –
3 | 358770 (eA*eG*eT*e[5mC]*eT*eG*eA*eT*eA*eA*eG*e[5mC]*eT*eA*e[5mC]*e[5mC]*e[5mC]*eG*eA*e[5mC]; antisense) [compound 358770] | – | 250
4 | ISIS 358775: uniform 2′-MOE PS; targets mir-21 pri-miRNA (antisense eA*e[5mC]*eA*eG*e[5mC]*e[5mC]*e[5mC]*eA*eT*e[5mC]*eG*eA*e[5mC]*eT*eG*eG*eT*eG*eT*eT) | stimulate an increase in levels of the mir-21 pri-miRNA molecule | –
5 | 358783 (antisense eG*eA*eG*eT*eT*eT*e[5mC]*eT*eG*eA*eT*eT*eA*eT*eA*eA*eA*e[5mC]*eA*eA) [compound 358783] | – | 133
6 | ISIS 358776: uniform 2′-MOE PS; targets mir-21 pri-miRNA (antisense eT*eG*eT*e[5mC]*eA*eG*eA*e[5mC]*eA*eG*e[5mC]*e[5mC]*e[5mC]*eA*eT*e[5mC]*eG*eA*e[5mC]*eT) | stimulate an increase in levels of the mir-21 pri-miRNA molecule | –
7 | 358782 (antisense eA*eA*e[5mC]*eA*eA*eT*eG*eA*eT*eG*e[5mC]*eT*eG*eG*eG*eT*eA*eA*eT*eG) [compound 358782] | – | 155
8 | ISIS 358778: uniform 2′-MOE PS; targets mir-21 pri-miRNA (antisense eG*eA*eT*eA*e[5mC]*e[5mC]*eA*eA*eA*eA*eT*eG*eT*e[5mC]*eA*eG*eA*e[5mC]*eA*eG) | stimulate an increase in levels of the mir-21 pri-miRNA molecule | –
9 | ISIS 358777: uniform 2′-MOE PS; SEQ ID NO: 927; region spanning 3′ Drosha cleavage site of mir-21 pri-miRNA (antisense e[5mC]*e[5mC]*eA*eA*eA*eA*eT*eG*eT*e[5mC]*eA*eG*eA*e[5mC]*eA*eG*e[5mC]*e[5mC]*e[5mC]*eA) [uniform 2′-MOE PS; region spanning 3′ Drosha cleavage site of mir-21 pri-miRNA] | stimulate an increase in levels of the mir-21 pri-miRNA molecule; also recorded: stimulate the greatest increases in expression of the mir-21 pri-miRNA | –
10 | 358785 (antisense eG*eA*eA*eA*eG*eA*eT*eA*e[5mC]*e[5mC]*eA*eA*eA*eA*eT*eG*eT*e[5mC]*eA*eG) [compound 358785] | – | 257
11 | 358778 (antisense eG*eA*eT*eA*e[5mC]*e[5mC]*eA*eA*eA*eA*eT*eG*eT*e[5mC]*eA*eG*eA*e[5mC]*eA*eG) [compound 358778] | – | 503
12 | ISIS 358767: uniform 2′-MOE PS; targets mir-21 pri-miRNA (antisense eG*eG*eA*eG*eA*eT*eG*eT*e[5mC]*eA*e[5mC]*eG*eA*eT*eG*eG*eT*eA*eG*eG) | stimulate an increase in levels of the mir-21 pri-miRNA molecule | –
13 | 358781 (antisense eT*eA*eA*eT*eG*eT*eT*eT*eA*eA*eA*eT*eG*eA*eG*eA*eA*e[5mC]*eA*eT) [compound 358781] | – | 122
14 | ISIS 358770: uniform 2′-MOE PS; targets mir-21 pri-miRNA (antisense eA*eG*eT*e[5mC]*eT*eG*eA*eT*eA*eA*eG*e[5mC]*eT*eA*e[5mC]*e[5mC]*e[5mC]*eG*eA*e[5mC]) | stimulate an increase in levels of the mir-21 pri-miRNA molecule | –
15 | ISIS 358769: uniform 2′-MOE PS; targets mir-21 pri-miRNA (antisense eG*eA*eT*eA*eA*eG*e[5mC]*eT*eA*e[5mC]*e[5mC]*e[5mC]*eG*eA*e[5mC]*eA*eA*eG*eG*eT) | stimulate an increase in levels of the mir-21 pri-miRNA molecule | –
16 | 358765 (eA*e[5mC]*eA*eA*eG*e[5mC]*eA*eG*eA*e[5mC]*eA*eG*eT*e[5mC]*eA*eG*eG*e[5mC]*eA*eG; antisense) [compound 358765] | – | 133
17 | 358784 (antisense e[5mC]*eG*eA*e[5mC]*eA*eA*eG*eG*eT*eG*eG*eT*eA*e[5mC]*eA*eG*e[5mC]*e[5mC]*eA*eT) [compound 358784] | – | 358
18 | 358767 (eG*eG*eA*eG*eA*eT*eG*eT*e[5mC]*eA*e[5mC]*eG*eA*eT*eG*eG*eT*eA*eG*eG; antisense) [compound 358767] | – | 248
19 | ISIS 358785: uniform 2′-MOE PS; targets mir-21 pri-miRNA (antisense eG*eA*eA*eA*eG*eA*eT*eA*e[5mC]*e[5mC]*eA*eA*eA*eA*eT*eG*eT*e[5mC]*eA*eG) | stimulate an increase in levels of the mir-21 pri-miRNA molecule | –
20 | 358780 (antisense eA*eA*e[5mC]*eA*eT*eT*eG*eG*eA*eT*eA*eT*eG*eG*eA*eT*eG*eG*eT*e[5mC]) [compound 358780] | – | 269
21 | 358776 (antisense eT*eG*eT*e[5mC]*eA*eG*eA*e[5mC]*eA*eG*e[5mC]*e[5mC]*e[5mC]*eA*eT*e[5mC]*eG*eA*e[5mC]*eT) [compound 358776] | – | 367
22 | 327863 (antisense ACGCTAGCCTAATAGCGAGG; sugars from the 5' end e5 d10 e5, all phosphorothioate, methylation of C not given here) [compound 327863] | – | 107
23 | 358779 (antisense eG*eG*eT*e[5mC]*eA*eG*eA*eT*eG*eA*eA*eA*eG*eA*eT*eA*e[5mC]*e[5mC]*eA*eA) [compound 358779] | – | 646
24 | 358766 (eG*eG*eT*eA*eG*eG*e[5mC]*eA*eA*eA*eA*e[5mC]*eA*eA*eG*e[5mC]*eA*eG*eA*e[5mC]; antisense) [compound 358766] | – | 142
25 | 358772 (eG*eA*eG*eA*eT*eT*e[5mC]*eA*eA*e[5mC]*eA*eG*eT*e[5mC]*eA*eA*e[5mC]*eA*eT*e[5mC]; antisense) [compound 358772] | – | 245
26 | 358769 (eG*eA*eT*eA*eA*eG*e[5mC]*eT*eA*e[5mC]*e[5mC]*e[5mC]*eG*eA*e[5mC]*eA*eA*eG*eG*eT; antisense) [compound 358769] | – | 265
27 | 358771 (e[5mC]*eA*eA*e[5mC]*eA*eG*eT*e[5mC]*eA*eA*e[5mC]*eA*eT*e[5mC]*eA*eG*eT*e[5mC]*eT*eG; antisense) [compound 358771] | – | 181
28 | 358773 (e[5mC]*eT*eG*eG*eT*eG*eT*eT*eG*e[5mC]*e[5mC]*eA*eT*eG*eA*eG*eA*eT*eT*e[5mC]; antisense) [compound 358773] | – | 148
